Laboratory results reported in patent US20250230193A1, “CYCLIC COMPOUND HAVING SELECTIVE KRAS INHIBITORY EFFECT ON HRAS AND NRAS” (CHUGAI SEIYAKU KABUSHIKI KAISHA, priority 2022, published 2025).
*1 amine or outer side, *2 acyl side, *3 side chain or, on linkers, in order; H or OH if unused. Where a SMILES comes first, the peptide text is derived from it. Bridges are numbered along the chain shown (N, C = ends). [ ]: non-standard residue; d: D form. The star is where a group is joined. hPhe(3-Cl-4-CF3) = N[C@@H](CCc1ccc(C(F)(F)F)c(Cl)c1)C(=O)O; X35 = Cc1ccc(C[C@@H](C(=O)[*:2])N(CCC(C)(C)C)[*:1])cc1; X41 = Cc1ccc(C[C@@H](C(=O)[*:2])N(CCC(F)(F)F)[*:1])cc1; NPrPhe(4-CF3) = CCCN[C@@H](Cc1ccc(C(F)(F)F)cc1)C(=O)O; X27 = Cc1ccc(C[C@@H](C(=O)[*:2])N(CC2CCCCC2)[*:1])cc1; X29 = Cc1ccc(C[C@@H](C(=O)[*:2])N(CC2CCCC2)[*:1])cc1; NMePhe(4-CF3) = CN[C@@H](Cc1ccc(C(F)(F)F)cc1)C(=O)O; X34 = Cc1ccc(C[C@@H](C(=O)[*:2])N(CCC(C)C)[*:1])cc1; X48 = C=CCCN([C@@H](Cc1ccc(C)cc1)C(=O)[*:2])[*:1]; X12 = COCCN([C@@H](Cc1ccc(C)cc1)C(=O)[*:2])[*:1]; NPrPhe(4-Me) = CCCN[C@@H](Cc1ccc(C)cc1)C(=O)O; NMeGly(cPent) = CN[C@H](C(=O)O)C1CCCC1; NMeD = CN[C@@H](CC(=O)O)C(=O)O; NMeL = CN[C@@H](CC(C)C)C(=O)O; Pip = O=C(O)[C@@H]1CCCCN1; Morpholide = C1CN(*)CCO1; NMeA = CN[C@@H](C)C(=O)O; Ac5c = NC1(C(=O)O)CCCC1; Aze = O=C(O)[C@@H]1CCN1; NEtG = CCNCC(=O)O; Sar = CNCC(=O)O

Key:
[1] = molecular target: GDP-bound HRAS wild-type protein (Homo sapiens, UniProt P01112); assay: Binding to HRAS by surface plasmon resonance (SPR), Single Cycle Kinetics; conditions: KD ratio HRAS/KRAS, SPR
[2] = molecular target: GDP-bound NRAS wild-type protein (Homo sapiens, UniProt P01111); assay: Binding to NRAS by surface plasmon resonance (SPR), Single Cycle Kinetics; conditions: KD ratio NRAS/KRAS, SPR
GDP-bound NRAS wild-type protein, sequence (P01111 whole entry): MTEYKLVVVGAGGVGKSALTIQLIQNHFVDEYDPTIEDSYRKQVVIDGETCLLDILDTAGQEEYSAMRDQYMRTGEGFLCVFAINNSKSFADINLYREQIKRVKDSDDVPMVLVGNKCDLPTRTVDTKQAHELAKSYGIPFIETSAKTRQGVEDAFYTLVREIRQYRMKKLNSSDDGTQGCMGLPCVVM

GDP-bound HRAS wild-type protein, sequence (P01112 whole entry): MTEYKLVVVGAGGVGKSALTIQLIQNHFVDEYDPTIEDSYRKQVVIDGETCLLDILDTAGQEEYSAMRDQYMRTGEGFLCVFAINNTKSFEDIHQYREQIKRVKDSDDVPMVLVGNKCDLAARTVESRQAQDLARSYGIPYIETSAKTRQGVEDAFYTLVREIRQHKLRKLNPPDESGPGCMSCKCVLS

Row | Structure (SMILES) | HRAS/KRAS (ratio of KD for GDP-bound HRAS wild-type to KD for KRAS) [1] | NRAS/KRAS (ratio of KD for GDP-bound NRAS wild-type to KD for KRAS) [2]
1 | CCCN1C(=O)CN(CC)C(=O)CN(C)C(=O)[C@H]([C@@H](C)CC)NC(=O)[C@H](CC(C)C)N(C)C(=O)C[C@@H](C(=O)N2CCOCC2)N(C)C(=O)[C@H](C2CCCC2)N(C)C(=O)C2(CCCC2)NC(=O)[C@@H]2CCCN2C(=O)[C@H](CCc2ccc(C(F)(F)F)c(Cl)c2)NC(=O)CN(CC)C(=O)[C@@H]1Cc1ccc(C)cc1 [PP0069] ([NMeL]I[Sar][NEtG][NPrPhe(4-Me)][NEtG][hPhe(3-Cl-4-CF3)]P[Ac5c][NMeGly(cPent)][NMeD]-Morpholide; lactam N-11) | C (A compound having a KD ratio of 0.1 or more and less than 3 is denoted as C) | C (A compound having a KD ratio of 0.1 or more and less than 3 is denoted as C)
2 | CCCN1C(=O)[C@@H]2CCN2C(=O)[C@@H]2CCCCN2C(=O)[C@H]([C@@H](C)CC)NC(=O)[C@H](CC(C)C)N(C)C(=O)C[C@@H](C(=O)N2CCOCC2)N(C)C(=O)[C@H](C2CCCC2)N(C)C(=O)C2(CCCC2)NC(=O)[C@@H]2CCCN2C(=O)[C@H](CCc2ccc(C(F)(F)F)c(Cl)c2)NC(=O)CN(C)C(=O)[C@@H]1Cc1ccc(C)cc1 [PP0070] ([NMeL]I[Pip][Aze][NPrPhe(4-Me)][Sar][hPhe(3-Cl-4-CF3)]P[Ac5c][NMeGly(cPent)][NMeD]-Morpholide; lactam N-11) | B (a compound having 3 or more and less than 10 is denoted as B) | C (A compound having a KD ratio of 0.1 or more and less than 3 is denoted as C)
3 | CC[C@H](C)[C@@H]1NC(=O)[C@H](CC(C)C)N(C)C(=O)C[C@@H](C(=O)N2CCOCC2)N(C)C(=O)[C@H](C2CCCC2)N(C)C(=O)C2(CCCC2)NC(=O)[C@@H]2CCCN2C(=O)[C@H](CCc2ccc(C(F)(F)F)c(Cl)c2)NC(=O)CN(C)C(=O)[C@H](Cc2ccc(C(F)(F)F)cc2)N(C)C(=O)CN(C)C(=O)CN(C)C1=O [PP0076] ([NMeL]I[Sar][Sar][NMePhe(4-CF3)][Sar][hPhe(3-Cl-4-CF3)]P[Ac5c][NMeGly(cPent)][NMeD]-Morpholide; lactam N-11) | C (A compound having a KD ratio of 0.1 or more and less than 3 is denoted as C) | C (A compound having a KD ratio of 0.1 or more and less than 3 is denoted as C)
4 | CCCN1C(=O)[C@@H]2CCN2C(=O)[C@@H]2CCCCN2C(=O)[C@H]([C@@H](C)CC)NC(=O)[C@H](CC(C)C)N(C)C(=O)C[C@@H](C(=O)N2CCOCC2)N(C)C(=O)[C@H](C2CCCC2)N(C)C(=O)C2(CCCC2)NC(=O)[C@@H]2CCCN2C(=O)[C@H](CCc2ccc(C(F)(F)F)c(Cl)c2)NC(=O)CN(C)C(=O)[C@@H]1Cc1ccc(C(F)(F)F)cc1 [PP0077] ([NMeL]I[Pip][Aze][NPrPhe(4-CF3)][Sar][hPhe(3-Cl-4-CF3)]P[Ac5c][NMeGly(cPent)][NMeD]-Morpholide; lactam N-11) | B (a compound having 3 or more and less than 10 is denoted as B) | C (A compound having a KD ratio of 0.1 or more and less than 3 is denoted as C)
5 | CCCN1C(=O)[C@@H]2CCN2C(=O)[C@H](C)NC(=O)[C@H]([C@@H](C)CC)NC(=O)[C@H](CC(C)C)N(C)C(=O)C[C@@H](C(=O)N2CCOCC2)N(C)C(=O)[C@H](C2CCCC2)N(C)C(=O)C2(CCCC2)NC(=O)[C@@H]2CCCN2C(=O)[C@H](CCc2ccc(C(F)(F)F)c(Cl)c2)NC(=O)CN(C)C(=O)[C@@H]1Cc1ccc(C(F)(F)F)cc1 [PP0078] ([NMeL]IA[Aze][NPrPhe(4-CF3)][Sar][hPhe(3-Cl-4-CF3)]P[Ac5c][NMeGly(cPent)][NMeD]-Morpholide; lactam N-11) | B (a compound having 3 or more and less than 10 is denoted as B) | C (A compound having a KD ratio of 0.1 or more and less than 3 is denoted as C)
6 | CC[C@H](C)[C@@H]1NC(=O)[C@H](CC(C)C)N(C)C(=O)C[C@@H](C(=O)N2CCOCC2)N(C)C(=O)[C@H](C2CCCC2)N(C)C(=O)C2(CCCC2)NC(=O)[C@@H]2CCCN2C(=O)[C@H](CCc2ccc(C(F)(F)F)c(Cl)c2)NC(=O)CN(C)C(=O)[C@H](Cc2ccc(C)cc2)N(CC2CCCC2)C(=O)[C@@H]2CCN2C(=O)[C@H](C)N(C)C1=O [PP0084] ([NMeL]I[NMeA][Aze][X29][Sar][hPhe(3-Cl-4-CF3)]P[Ac5c][NMeGly(cPent)][NMeD]-Morpholide; lactam N-11) | B (a compound having 3 or more and less than 10 is denoted as B) | C (A compound having a KD ratio of 0.1 or more and less than 3 is denoted as C)
7 | CC[C@H](C)[C@@H]1NC(=O)[C@H](CC(C)C)N(C)C(=O)C[C@@H](C(=O)N2CCOCC2)N(C)C(=O)[C@H](C2CCCC2)N(C)C(=O)C2(CCCC2)NC(=O)[C@@H]2CCCN2C(=O)[C@H](CCc2ccc(C(F)(F)F)c(Cl)c2)NC(=O)CN(C)C(=O)[C@H](Cc2ccc(C)cc2)N(CC2CCCCC2)C(=O)[C@@H]2CCN2C(=O)[C@H](C)N(C)C1=O [PP0085] ([NMeL]I[NMeA][Aze][X27][Sar][hPhe(3-Cl-4-CF3)]P[Ac5c][NMeGly(cPent)][NMeD]-Morpholide; lactam N-11) | C (A compound having a KD ratio of 0.1 or more and less than 3 is denoted as C) | C (A compound having a KD ratio of 0.1 or more and less than 3 is denoted as C)
8 | CC[C@H](C)[C@@H]1NC(=O)[C@H](CC(C)C)N(C)C(=O)C[C@@H](C(=O)N2CCOCC2)N(C)C(=O)[C@H](C2CCCC2)N(C)C(=O)C2(CCCC2)NC(=O)[C@@H]2CCCN2C(=O)[C@H](CCc2ccc(C(F)(F)F)c(Cl)c2)NC(=O)CN(C)C(=O)[C@H](Cc2ccc(C)cc2)N(CCC(C)C)C(=O)[C@@H]2CCN2C(=O)[C@H](C)N(C)C1=O [PP0086] ([NMeL]I[NMeA][Aze][X34][Sar][hPhe(3-Cl-4-CF3)]P[Ac5c][NMeGly(cPent)][NMeD]-Morpholide; lactam N-11) | B (a compound having 3 or more and less than 10 is denoted as B) | C (A compound having a KD ratio of 0.1 or more and less than 3 is denoted as C)
9 | CC[C@H](C)[C@@H]1NC(=O)[C@H](CC(C)C)N(C)C(=O)C[C@@H](C(=O)N2CCOCC2)N(C)C(=O)[C@H](C2CCCC2)N(C)C(=O)C2(CCCC2)NC(=O)[C@@H]2CCCN2C(=O)[C@H](CCc2ccc(C(F)(F)F)c(Cl)c2)NC(=O)CN(C)C(=O)[C@H](Cc2ccc(C)cc2)N(CCC(C)(C)C)C(=O)[C@@H]2CCN2C(=O)[C@H](C)N(C)C1=O [PP0087] ([NMeL]I[NMeA][Aze][X35][Sar][hPhe(3-Cl-4-CF3)]P[Ac5c][NMeGly(cPent)][NMeD]-Morpholide; lactam N-11) | C (A compound having a KD ratio of 0.1 or more and less than 3 is denoted as C) | C (A compound having a KD ratio of 0.1 or more and less than 3 is denoted as C)
10 | C=CCCN1C(=O)[C@@H]2CCN2C(=O)[C@H](C)N(C)C(=O)[C@H]([C@@H](C)CC)NC(=O)[C@H](CC(C)C)N(C)C(=O)C[C@@H](C(=O)N2CCOCC2)N(C)C(=O)[C@H](C2CCCC2)N(C)C(=O)C2(CCCC2)NC(=O)[C@@H]2CCCN2C(=O)[C@H](CCc2ccc(C(F)(F)F)c(Cl)c2)NC(=O)CN(C)C(=O)[C@@H]1Cc1ccc(C)cc1 [PP0089] ([NMeL]I[NMeA][Aze][X48][Sar][hPhe(3-Cl-4-CF3)]P[Ac5c][NMeGly(cPent)][NMeD]-Morpholide; lactam N-11) | B (a compound having 3 or more and less than 10 is denoted as B) | C (A compound having a KD ratio of 0.1 or more and less than 3 is denoted as C)
11 | CC[C@H](C)[C@@H]1NC(=O)[C@H](CC(C)C)N(C)C(=O)C[C@@H](C(=O)N2CCOCC2)N(C)C(=O)[C@H](C2CCCC2)N(C)C(=O)C2(CCCC2)NC(=O)[C@@H]2CCCN2C(=O)[C@H](CCc2ccc(C(F)(F)F)c(Cl)c2)NC(=O)CN(C)C(=O)[C@H](Cc2ccc(C)cc2)N(CCC(F)(F)F)C(=O)[C@@H]2CCN2C(=O)[C@H](C)N(C)C1=O [PP0091] ([NMeL]I[NMeA][Aze][X41][Sar][hPhe(3-Cl-4-CF3)]P[Ac5c][NMeGly(cPent)][NMeD]-Morpholide; lactam N-11) | B (a compound having 3 or more and less than 10 is denoted as B) | C (A compound having a KD ratio of 0.1 or more and less than 3 is denoted as C)
12 | CC[C@H](C)[C@@H]1NC(=O)[C@H](CC(C)C)N(C)C(=O)C[C@@H](C(=O)N2CCOCC2)N(C)C(=O)[C@H](C2CCCC2)N(C)C(=O)C2(CCCC2)NC(=O)[C@@H]2CCCN2C(=O)[C@H](CCc2ccc(C(F)(F)F)c(Cl)c2)NC(=O)CN(C)C(=O)[C@H](Cc2ccc(C)cc2)N(CCOC)C(=O)[C@@H]2CCN2C(=O)[C@H](C)N(C)C1=O [PP0092] ([NMeL]I[NMeA][Aze][X12][Sar][hPhe(3-Cl-4-CF3)]P[Ac5c][NMeGly(cPent)][NMeD]-Morpholide; lactam N-11) | C (A compound having a KD ratio of 0.1 or more and less than 3 is denoted as C) | C (A compound having a KD ratio of 0.1 or more and less than 3 is denoted as C)
